Each block holds one compound with its values, some of them ahead of it.
melting point: 187 to 190 °C
SMILES: CC1Cc2cc3c(cc2C(c2ccc(N)cc2)=NN1c1nccs1)OCO3 (racemic) [Example 60, (±)-5-(4-Aminophenyl)-8-methyl-7-(2-thiazolyl)-8,9-dihydro-7H-1,3-dioxolo[4,5-h][2,3]benzodiazepine]

melting point: 180 to 184 °C
SMILES: COc1ccc2c(c1)C(c1ccc(N)cc1)=NN(c1nnc(C)s1)C(C)C2 (racemic) [Example 98, (±)-1-(4-Aminophenyl)-4-methyl-3-(5-methyl-1,3,4-thiadiazol-2-yl)-8-methoxy-4,5-dihydro-3H-[2,3]benzodiazepine]

melting point: 104 to 107 °C
SMILES: CC1Cc2ccc(Cl)cc2C(c2ccc(N)cc2)=NN1c1nccs1 (racemic) [Example 77, (±)-1-(4-Aminophenyl)-8-chloro-4-methyl-3-(2-thiazolyl)-4,5-dihydro-3H-[2,3]benzodiazepine]

melting point: 263 to 264 °C
SMILES: CC1Cc2cc3c(cc2C(c2ccc(N)cc2)=NN1c1n[nH]c(=O)s1)OCO3 (racemic) [Example 101, (±)-5-(4-Aminophenyl)-8-methyl-7-(5-oxo-4,5-dihydro-1,3,4-thiadiazol-2-yl)-8,9-dihydro-7H-1,3-dioxolo-[4,5-h][2,3]benzodiazepine]

melting point: 200 to 204 °C
SMILES: Nc1ccc(C2=NN(c3nccs3)CCc3cc4c(cc32)OCO4)cc1 [Example 74, 5-(4-Aminophenyl)-7-(2-thiazolyl)-8,9-dihydro-7H-1,3-dioxolo[4,5-h][2,3]benzodiazepine]

melting point: 164 to 166 °C
SMILES: CC1Cc2cc3c(cc2C(c2ccc(N)cc2)=NN1c1ccc(Cl)nn1)OCO3 (racemic) [Example 112, (±)-5-(4-Aminophenyl)-7-(3-chloropyridazin-6-yl)-8-methyl-8,9-dihydro-7H-1,3-dioxolo-[4,5-h][2,3]benzodiazepine]

melting point: 240 to 242 °C
SMILES: Cc1nc(N2N=C(c3ccc(N)cc3)c3cc4c(cc3CC2C)OCO4)sc1C (racemic) [Example 65, (±)-5-(4-Aminophenyl)-8-methyl-7-(4,5-dimethyl-thiazol-2-yl)-8,9-dihydro-7H-1,3-dioxolo-[4,5-h][2,3]benzodiazepine]

melting point: 213 to 216 °C
SMILES: CC1Cc2ccc(Cl)cc2C(c2ccc(N)cc2)=NN1C1=NCCS1 (racemic) [Example 79, (±)-1-(4-Aminophenyl)-3-(4,5-dihydro-thiazol-2-yl)-8-chloro-4-methyl-4,5-dihydro-3H-[2,3]benzodiazepine]

melting point: 105 to 107 °C
SMILES: COc1ccc2c(c1)C(c1ccc(N)cc1)=NN(c1nccs1)C(C)C2 (racemic) [Example 76, (±)-1-(4-Aminophenyl)-4-methyl-8-methoxy-3-(2-thiazolyl)-4,5-dihydro-3H-[2,3]benzodiazepine]

The next lines start with the compound.

SMILES: CCCCCCc1nnc(N2N=C(c3ccc(N)c(C)c3)c3cc4c(cc3C[C@H]2C)OCO4)s1 [Example 178, (R)-5-(4-Amino-3-methylphenyl)-7-(5-hexyl-1,3,4-thiadiazol-2-yl)-8-methyl-8,9-dihydro-7H-1,3-dioxolo[4,5-h][2,3]benzodiazepine]
melting point: 180 to 181 °C

SMILES: CC(=O)Nc1ccc(C2=NN(C3=NCCS3)[C@H](C)Cc3cc4c(cc32)OCO4)cc1 [Example 125, (R)-5-(4-Acetylaminophenyl)-7-(4,5-dihydro-thiazol-2-yl)-8-methyl-8,9-dihydro-7H-1,3-dioxolo-[4,5-h][2,3]benzodiazepine]
melting point: 143 to 145 °C

SMILES: CC1Cc2cc3c(cc2C(c2ccc(N)cc2)=NN1c1ncnn1C)OCO3 (racemic) [Example 115, (±)-5-(4-Aminophenyl)-8-methyl-7-(2-methyl-2H-1,2,4-triazol-3-yl)-8,9-dihydro-7H-1,3-dioxolo-[4,5-h][2,3]benzodiazepine]
melting point: 182 to 183 °C

SMILES: C[C@@H]1Cc2cc3c(cc2C(c2ccc(N)cc2)=NN1c1nnco1)OCO3 [Example 180, (R)-5-(4-Aminophenyl)-8-methyl-7-(1,3,4-oxadiazol-2-yl)-8,9-dihydro-7H-1,3-dioxolo[4,5-h][2,3]benzodiazepine]
melting point: 187 to 190 °C

SMILES: Cc1nc(N2N=C(c3ccc(N)cc3)c3cc4c(cc3CC2C)OCO4)n(C)n1 (racemic) [Example 117, (±)-5-(4-Aminophenyl)-8-methyl-7-(2,5-dimethyl-2H-1,2,4-triazol-3-yl)-8,9-dihydro-7H-1,3-dioxolo-[4,5-h][2,3]benzodiazepine]
melting point: 185 to 187 °C

SMILES: Cc1nnc(N2N=C(c3ccc(N)c(C)c3)c3cc4c(cc3C[C@H]2C)OCO4)o1 [Example 181, (R)-5-(4-Amino-3-methylphenyl)-8-methyl-7-(5-methyl-1,3,4-oxadiazol-2-yl)-8,9-dihydro-7H-1,3-dioxolo[4,5-h][2,3]benzodiazepine]
melting point: 140 to 145 °C

SMILES: COCc1nnc(N2N=C(c3ccc(N)c(Cl)c3)c3cc4c(cc3C[C@H]2C)OCO4)s1 [Example 183, (R)-5-(4-Amino-3-chlorophenyl)-8-methyl-7-(5-methoxymethyl-1,3,4-thiadiazol-2-yl)-8,9-dihydro-7H-1,3-dioxolo[4,5-h][2,3]benzodiazepine]
melting point: 105 to 109 °C

SMILES: Cc1nnc(N2N=C(c3ccc(N)c(C)c3)c3cc4c(cc3CC2C)OCO4)s1 (racemic) [Example 95, (±)-5-(4-Amino-3-methylphenyl)-8-methyl-7-(5-methyl-1,3,4-thiadiazol-2-yl)-8,9-dihydro-7H-1,3-dioxolo-[4,5-h][2,3]benzodiazepine]
melting point: 140 to 144 °C

SMILES: CC1Cc2cc3c(cc2C(c2ccc(N)cc2)=NN1C1=NCCS1)OCO3 (racemic) [Example 68, (±)-5-(4-Aminophenyl)-7-(4,5-dihydro-thiazol-2-yl)-8-methyl-8,9-dihydro-7H-1,3-dioxolo-[4,5-h][2,3]benzodiazepine]
melting point: 145 to 150 °C

SMILES: CCOC(=O)c1csc(N2N=C(c3ccc(N)cc3)c3cc4c(cc3CC2C)OCO4)n1 (racemic) [Example 67, (±)-5-(4-Aminophenyl)-7-(4-ethoxycarbonyl-thiazol-2-yl)-8-methyl-8,9-dihydro-7H-1,3-dioxolo-[4,5-h][2,3]benzodiazepine]
melting point: 251 to 252 °C

SMILES: CC(=O)Nc1ccc(C2=NN(c3nnc(C)s3)[C@H](C)Cc3cc4c(cc32)OCO4)cc1 [Example 130, (R)-5-(4-Acetylaminophenyl)-8-methyl-7-(5-methyl-1,3,4-thiadiazol-2-yl)-8,9-dihydro-7H-1,3-dioxolo-[4,5-h][2,3]benzodiazepine]
melting point: 276 to 277 °C

SMILES: CC1Cc2cc3c(cc2C(c2ccc(N)cc2)=NN1C1=NC(=O)CS1)OCO3 (racemic) [Example 71, (±)-5-(4-Aminophenyl)-7-(4,5-dihydro-4-oxo-thiazol-2-yl)-8-methyl-8,9-dihydro-7H-1,3-dioxolo-[4,5-h][2,3]benzodiazepine]
melting point: 218 to 220 °C

SMILES: Cc1cc(C2=NN(C3=NN=C(C(=O)OCc4ccccc4)[SH]3CN)[C@H](C)Cc3cc4c(cc32)OCO4)ccc1[N+](=O)[O-] (stereo partly drawn) [Example 145, (R)-7-(5-Benzyloxycarbonyl-aminomethyl-1,3,4-thiadiazol-2-yl)-8-methyl-5-(3-methyl-4-nitrophenyl)-8,9-dihydro-7H-1,3-dioxolo[4,5-h][2,3]benzodiazepine]
melting point: 240 to 243 °C

SMILES: C[C@H]1Cc2cc3c(cc2C(c2ccc(N)cc2)=NN1C1=NCCS1)OCO3 [Example 70, (S)-5-(4-Aminophenyl)-7-(4,5-dihydro-thiazol-2-yl)-8-methyl-8,9-dihydro-7H-1,3-dioxolo-[4,5-h][2,3]benzodiazepine]
melting point: 150 to 152 °C
